The values that follow come from PubChem BioAssay (NCI).

Structures are written as SMILES.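 Cultured in 96-well plates, cells were exposed to test compound for 48 hours across five concentrations. GI50: concentration for 50% inhibition of growth. The concentration for full growth arrest is given as TGI.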 Where only a bound is given, the exact number is not on record here.

Among the test systems are ACHN renal; BT-549 breast; EKVX NSCLC; HOP-62 NSCLC; NCI-H23 lung; SF-539 CNS; SK-MEL-28 melanoma; PC-3 prostate.
What all share (assay): NCI anticancer screen, dose series, 48 h

For `Nc1nc2ccccc2c2[nH]c3ccccc3c12`, the GI50 in the test with ACHN renal was 0.485 µM; with BT-549 breast, 1.26 µM; in the test with EKVX NSCLC, 3.19 µM; in the test with HOP-62 NSCLC it was 1.13 µM; in the test with NCI-H23 lung it was 1.37 µM; in the test on SF-539 CNS, 1.76 µM. In the test on SK-MEL-28 melanoma, the GI50 was 1.79 µM. For the same compound, the TGI was determined as 1.79 µM in the test with ACHN renal; 2.58 µM with BT-549 breast; 11.6 µM with EKVX NSCLC; 2.44 µM in the test with HOP-62 NSCLC; 2.86 µM in the test on NCI-H23 lung; 3.37 µM in the test on SF-539 CNS. In addition, the TGI in the test on SK-MEL-28 melanoma amounted to 3.19 µM.
As to `C=C(C)[C@@H]1CC[C@]2(C(=O)N3CCN(C)CC3)CC[C@]3(C)[C@H](CC[C@@H]4[C@@]5(C)C/C(=C/c6ccncc6)[C@H](O)C(C)(C)[C@@H]5CC[C@]43C)[C@@H]12`, the GI50 in the test with ACHN renal was 6.6 µM; in the test with BT-549 breast, 4.33 µM; in the test with EKVX NSCLC, 6.04 µM; in the test with HOP-62 NSCLC, 10.1 µM; in the test on NCI-H23 lung, 8.73 µM; in the test on PC-3 prostate, 2.75 µM. The figures for the GI50 with SF-539 CNS and with SK-MEL-28 melanoma were 4.12 µM and 7.46 µM, respectively. Besides, the TGI was above 100 µM in the test on ACHN renal; 24.7 µM in the test on BT-549 breast; 43.2 µM in the test with EKVX NSCLC; 24.7 µM in the test on HOP-62 NSCLC; above 100 µM in the test on NCI-H23 lung; 16.7 µM with PC-3 prostate. For the same compound, the TGI with SF-539 CNS came out at 16.5 µM; in the test with SK-MEL-28 melanoma, 22.2 µM.
Consider `COc1ccc(-c2cc(=O)c3c(OC)c(O)c(OC)cc3o2)cc1`, for which the TGI with ACHN renal, in the test with BT-549 breast, in the test on EKVX NSCLC, with HOP-62 NSCLC, in the test with NCI-H23 lung and in the test with SF-539 CNS was above 100 µM each time. Also, in the test with SK-MEL-28 melanoma, the TGI was above 100 µM.
With `CC1=CC[C@@H]2[C@@H](CC[C@@]2(C)O)C(C)(C)[C@H]1CC[C@@H]1[C@@]2(C)CC[C@@H](O)C(C)(C)O[C@@H]2CC[C@]1(C)O`, the TGI with ACHN renal was 58.7 µM; in the test on BT-549 breast, 44 µM; with HOP-62 NSCLC it was 75.4 µM; in the test with NCI-H23 lung it was 76.2 µM; with PC-3 prostate it was above 100 µM; in the test on SF-539 CNS, 44 µM. The compound also registered a TGI in the test on SK-MEL-28 melanoma of 35.7 µM.
On to `O=S1(=O)OCc2ccccc21`, for which the TGI in the test with ACHN renal is above 100 µM; in the test with BT-549 breast it was above 100 µM; in the test with EKVX NSCLC, above 100 µM; in the test with HOP-62 NSCLC it was 42.3 µM; in the test with NCI-H23 lung, above 100 µM; in the test with PC-3 prostate it was above 100 µM. For the same compound, the TGI with SF-539 CNS and in the test with SK-MEL-28 melanoma was above 100 µM throughout.
Consider `C/C(=N\NC(=O)c1cccc(S(=O)(=O)N2CCN(C)CC2)c1)c1cc(Cl)ccc1O`, for which the GI50 in the test with ACHN renal was 0.46 µM; in the test with BT-549 breast it was 1.94 µM; in the test on EKVX NSCLC, 0.354 µM; in the test with HOP-62 NSCLC it was 0.461 µM; in the test on NCI-H23 lung it was 0.74 µM; in the test with PC-3 prostate, 1.18 µM. Further, the values for the GI50 in the test with SF-539 CNS and in the test with SK-MEL-28 melanoma were 1.06 µM and 1.36 µM, respectively. The TGI was above 100 µM with ACHN renal; 36 µM in the test on BT-549 breast; above 63.1 µM in the test with EKVX NSCLC; 37.3 µM with HOP-62 NSCLC; 45 µM with NCI-H23 lung; above 100 µM in the test with PC-3 prostate. Moreover, the TGI is 21.8 µM in the test with SF-539 CNS and above 61.3 µM with SK-MEL-28 melanoma.
Turning to `CN(C)C(=O)C(NCCO)c1ccccc1` (stereo not drawn), the TGI with ACHN renal, in the test on BT-549 breast, with EKVX NSCLC, with HOP-62 NSCLC, with NCI-H23 lung and in the test on PC-3 prostate was above 100 µM in each case. Also, the TGI in the test with SF-539 CNS and in the test on SK-MEL-28 melanoma was above 100 µM throughout.
For the compound `OCCNC(=S)Nc1ccc(-c2nc(N3C[C@H]4CC[C@@H](C3)O4)c3cccn3n2)cc1`, the GI50 is 0.0502 µM in the test on ACHN renal; 0.021 µM with BT-549 breast; 0.0629 µM with EKVX NSCLC; 0.0324 µM in the test with HOP-62 NSCLC; 0.0798 µM in the test on NCI-H23 lung; 0.0284 µM in the test with PC-3 prostate. Further, the GI50 is 0.108 µM with SF-539 CNS and 0.028 µM in the test on SK-MEL-28 melanoma. In addition, the TGI amounted to 1.86 µM in the test on ACHN renal; 0.507 µM in the test with BT-549 breast; 6.59 µM with EKVX NSCLC; 0.662 µM in the test with HOP-62 NSCLC; 16.7 µM in the test with NCI-H23 lung; 8.13 µM with PC-3 prostate. The TGI amounted to 0.767 µM with SF-539 CNS and 0.499 µM in the test on SK-MEL-28 melanoma.
Take `COc1cc(-c2nn(-c3ccc(NC(=O)Nc4ccc(Cl)c(C(F)(F)F)c4)cc3)cc2-c2ccncc2)ccc1Cl`: the GI50 in the test on ACHN renal was 2.02 µM; in the test on BT-549 breast, 2.01 µM; in the test on EKVX NSCLC, 1.1 µM; in the test with HOP-62 NSCLC it was 1.9 µM; in the test with NCI-H23 lung, 1.98 µM; in the test on PC-3 prostate, 1.67 µM. In addition, the GI50 is 1.76 µM in the test with SF-539 CNS and 1.88 µM with SK-MEL-28 melanoma. Also, the TGI in the test on ACHN renal is 9.71 µM; in the test on BT-549 breast, 4.57 µM; with EKVX NSCLC, 3.95 µM; with HOP-62 NSCLC it was 3.93 µM; in the test with NCI-H23 lung it was 5.79 µM; in the test with PC-3 prostate, above 100 µM. In addition, the TGI in the test on SF-539 CNS was 3.98 µM; in the test on SK-MEL-28 melanoma it was 3.9 µM.
Consider `COc1ccc(/C=C(/C(=O)N2CCN(c3ccc(C)cc3)CC2)c2cc(OC)c(OC)c(OC)c2)cc1N`, for which the GI50 is 0.203 µM with ACHN renal; 0.199 µM with BT-549 breast; 0.628 µM in the test with EKVX NSCLC; 0.474 µM in the test on HOP-62 NSCLC; 0.438 µM in the test with NCI-H23 lung; 0.312 µM in the test with PC-3 prostate. In addition, the GI50 with SF-539 CNS was 0.176 µM; in the test with SK-MEL-28 melanoma, 0.54 µM. Also, the TGI in the test with ACHN renal is above 100 µM; in the test with BT-549 breast, 4.79 µM; with EKVX NSCLC, above 100 µM; with HOP-62 NSCLC, above 100 µM; with NCI-H23 lung it was above 100 µM; in the test on PC-3 prostate, above 100 µM. In addition, the TGI in the test with SF-539 CNS was 0.717 µM; with SK-MEL-28 melanoma, above 100 µM.
Turning to `O=C1c2cccc3c([N+](=O)[O-])ccc(c23)C(=O)N1CCCCl`, the GI50 in the test on ACHN renal is above 10 µM; in the test on BT-549 breast, 4.82 µM; with HOP-62 NSCLC, 6.6 µM; in the test with NCI-H23 lung, 5.07 µM; in the test with PC-3 prostate it was 7.49 µM; in the test on SF-539 CNS, above 10 µM. Also, the GI50 in the test on SK-MEL-28 melanoma is 3.84 µM. Further, the TGI in the test on ACHN renal, in the test with BT-549 breast, with HOP-62 NSCLC, in the test with NCI-H23 lung, in the test with PC-3 prostate and in the test with SF-539 CNS was above 10 µM in each case. The TGI with SK-MEL-28 melanoma is above 10 µM.
